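Where inhibition never reached the appropriate level, the endpoint shown equals the highest concentration tested. Otherwise, values were interpolated linearly from a five-concentration, 48-hour dose response in 96-well plates. Here, GI50 denotes the concentration required for 50% inhibition of growth. Definition used: TGI = concentration required for complete inhibition of growth.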 Where a SMILES comes first, the peptide text is derived from it.
Legend:
Assay in all cases: DTP human tumour cell line panel, 48 h
SNB-19 CNS = test system: SNB-19 CNS
EKVX NSCLC = test system: EKVX NSCLC
SK-MEL-2 melanoma = test system: SK-MEL-2 melanoma
SW-620 colon = test system: SW-620 colon
SK-OV-3 ovarian = test system: SK-OV-3 ovarian
K-562 leukemia = test system: K-562 leukemia
HCT-15 colon = test system: HCT-15 colon
COLO 205 colon = test system: COLO 205 colon
UACC-62 melanoma = test system: UACC-62 melanoma
BT-549 breast = test system: BT-549 breast
MDA-MB-231 breast = test system: MDA-MB-231 breast

Compound | TGI (SNB-19 CNS) [µM] | TGI (EKVX NSCLC) [µM] | TGI (SK-MEL-2 melanoma) [µM] | TGI (SW-620 colon) [µM] | TGI (SK-OV-3 ovarian) [µM] | TGI (K-562 leukemia) [µM] | TGI (HCT-15 colon) [µM] | TGI (COLO 205 colon) [µM] | TGI (UACC-62 melanoma) [µM] | TGI (BT-549 breast) [µM] | TGI (MDA-MB-231 breast) [µM] | GI50 (SNB-19 CNS) [µM] | GI50 (SK-MEL-2 melanoma) [µM] | GI50 (SK-OV-3 ovarian) [µM] | GI50 (K-562 leukemia) [µM] | GI50 (COLO 205 colon) [µM] | GI50 (UACC-62 melanoma) [µM] | GI50 (BT-549 breast) [µM] | GI50 (MDA-MB-231 breast) [µM]
Cc1cc(S(=O)(=O)NC(=NCCc2ccccc2)NN)c(S)cc1Cl | 36.7 | > 100 | > 100 | 82.5 | 53.7 | > 100 | 37.9 | > 100 | 40 | 66.2 | > 100 |  |  |  |  |  |  |  | 
CCNc1nnc(-c2ccccc2Nc2ccccc2-c2nnc(NCC)s2)s1 | > 100 | > 100 | 31 | > 100 | 31.3 | > 100 | > 45.2 | > 53.9 | 35.3 | > 79.7 | 25.7 |  |  |  |  |  |  |  | 
CN(C)c1ccc(/C=C(\NC(=O)c2ccccc2)C(=O)Nc2cccc(C(=O)NCCCO)c2)cc1 | > 100 | > 100 | > 100 | > 100 | > 100 | > 100 | > 100 | > 100 | > 100 | > 100 | > 100 |  |  |  |  |  |  |  | 
COC(=O)[C@]12CSC[C@H]1C[C@H](c1cccc3ccccc13)N2 | > 100 | > 100 | > 100 | > 100 | > 100 | > 100 | > 100 | > 100 | > 100 | > 100 | > 100 |  |  |  |  |  |  |  | 
O=C(CN=C(CN(c1ccccc1)c1ccccc1)Oc1ccc(Cl)cc1Cl)n1ccnc1 | > 100 | > 100 | > 100 | > 100 | > 100 | > 100 | > 100 | > 100 | > 100 | > 100 | > 100 |  |  |  |  |  |  |  | 
CC1=CC(=O)N(n2c(Cc3ccc(Cl)cc3)n[nH]c2=O)C1=O | > 100 | > 100 | > 100 | > 100 | > 100 | 72.2 | > 100 | > 100 | 45.4 | > 100 | > 100 |  |  |  |  |  |  |  | 
CCCC(=O)OC[n+]1ccc(-c2c(COC(=O)NC(C)C)c(COC(=O)NC(C)C)c3n2CCC3)cc1 | > 100 | > 100 | > 100 | > 100 | > 100 | > 100 | > 100 | > 100 | > 100 | > 100 | > 100 |  |  |  |  |  |  |  | 
CCC12C=CCN3CCC4(c5cc(C(c6ccc(OC)cc6)C6Cc7ccccc7N6)c(OC)cc5N(C)C4C(O)(C(=O)OC)C1O)C32 (stereo unspecified) | > 100 | > 100 | 68.8 | > 100 | > 100 | 41.7 | > 100 | 27.5 | 31.4 | 80.6 | 59.2 |  |  |  |  |  |  |  | 
CC1(C)CCCCCCCCCC2CC2CCC(C)(C)C1=O (stereo unspecified) | 88.3 | 39.3 | 34.5 | > 100 | > 100 | 32.6 | 30.1 | 32.7 | > 100 | 87.4 | 43.9 |  |  |  |  |  |  |  | 
Nc1cc(Cl)ccc1SSc1ccc(Cl)cc1N | > 100 | 24.5 | 35 | 15 | > 100 | > 100 | 8.8 | 35.9 | 12.7 | 35.1 | 20.3 |  |  |  |  |  |  |  | 
CC(C(=O)n1ccnc1)N1c2ccccc2Sc2ccccc21 (stereo unspecified) | > 100 | > 100 | > 100 | > 100 | > 100 | > 100 | > 100 | > 100 | > 100 | > 100 | > 100 |  |  |  |  |  |  |  | 
CC(=O)NC1COC(COC(=O)CCCCCCCCCCNC(=O)c2ccc([N+](=O)[O-])c3c(=O)c4ccccc4[nH]c23)C(O)C1OC(C)C(=O)NC(C(=O)NC(CCC(N)=O)C(=O)OCc1ccccc1)C(C)C (stereo unspecified) | 18.5 | 27.8 | 28.7 | > 72.8 | 78.8 | 54.2 | 50.2 | 41.2 | 58.9 | > 83.1 | > 100 |  |  |  |  |  |  |  | 
CC1=CC(=O)N(n2c(-c3ccccc3)n[nH]c2=O)C1=O | > 100 | > 100 | > 100 | > 100 | > 100 | > 100 | > 100 | > 100 | > 100 | > 100 | > 100 |  |  |  |  |  |  |  | 
CS(=O)(=O)O[C@H]1[C@H](O)c2ccccc2[C@@H]1N=[N+]=[N-] | > 100 | > 100 | > 100 | > 100 | > 100 | > 100 | > 100 | > 100 | > 100 | > 100 | > 100 |  |  |  |  |  |  |  | 
NC(=O)CCC(NC(=O)c1c2ccccc2nc2ccccc12)C(=O)O (stereo unspecified) | > 100 | > 100 | > 100 | > 100 | > 100 | > 100 | > 100 | > 100 | > 100 | > 100 | > 100 |  |  |  |  |  |  |  | 
O=CN1CCC23CC(O)CCC2C1Cc1cc(Oc2nnnn2-c2ccccc2)cc(O)c13 (stereo unspecified) | > 100 | > 100 | > 100 | > 100 | > 100 | > 100 | > 100 | > 100 | > 100 | > 100 | > 100 |  |  |  |  |  |  |  | 
C=CCCCC1(C)CCNC1=S (stereo unspecified) | > 100 | > 100 | > 100 | > 100 | > 100 | > 100 | > 100 | > 100 | > 100 | > 100 | > 100 |  |  |  |  |  |  |  | 

Compound | TGI (SNB-19 CNS) [µM] | TGI (EKVX NSCLC) [µM] | TGI (SK-MEL-2 melanoma) [µM] | TGI (SW-620 colon) [µM] | TGI (SK-OV-3 ovarian) [µM] | TGI (K-562 leukemia) [µM] | TGI (HCT-15 colon) [µM] | TGI (COLO 205 colon) [µM] | TGI (UACC-62 melanoma) [µM] | TGI (BT-549 breast) [µM] | TGI (MDA-MB-231 breast) [µM] | GI50 (SNB-19 CNS) [µM] | GI50 (SK-MEL-2 melanoma) [µM] | GI50 (SK-OV-3 ovarian) [µM] | GI50 (K-562 leukemia) [µM] | GI50 (COLO 205 colon) [µM] | GI50 (UACC-62 melanoma) [µM] | GI50 (BT-549 breast) [µM] | GI50 (MDA-MB-231 breast) [µM]
CC(C)Cn1cnc2c(Cl)nc3ccccc3c21 | > 100 | > 100 | > 100 | > 100 | > 100 | > 100 | > 100 | > 100 | > 100 | > 100 | > 100 |  |  |  |  |  |  |  | 
O=C1/C(=C/c2ccc(O)c(O)c2)CC/C1=C\c1ccc(O)c(O)c1 | 66.4 | > 75.3 | > 72.7 | > 100 | > 60.2 | 27.7 | > 100 | > 86.8 | 26 | 28.9 | > 100 |  |  |  |  |  |  |  | 
CCOC(=O)c1sc2nc1CSc1sc(=S)sc1SCc1nc(sc1C(=O)OCC)-c1nc(c(C(=O)OCC)s1)CSc1sc(=S)sc1SCc1nc-2sc1C(=O)OCC | > 10 | > 10 | > 10 | > 10 | > 10 | > 10 | > 10 | > 10 | > 10 | > 10 | > 10 |  |  |  |  |  |  |  | 
CCC(C)C(NC(=O)C(CC(C)C)NC(=O)CNC(=O)C(NC(=O)C1CCCN1C(=O)C(CC(C)C)NC(=O)C(N)Cc1ccccc1)C(C)CC)C(=O)NC(CC(C)C)C(N)=O (stereo unspecified) (H-FLPIGLIL-NH2; configuration not given here) | > 75 | > 75 | > 75 | > 75 | > 75 | > 75 | > 75 | > 75 | > 75 | > 75 | > 75 |  |  |  |  |  |  |  | 
CC(=O)n1[nH]c(=O)n(-c2ccccc2)c1=O | > 100 | > 100 | > 100 | > 100 | > 100 | > 100 | > 100 | > 100 | > 100 | > 100 | > 100 |  |  |  |  |  |  |  | 
CC(=O)Nc1cc2nc3n(c2cc1C)CCC3OC(C)=O (stereo unspecified) | > 100 | > 100 | > 100 | > 100 | > 100 | > 100 | > 100 | > 100 | > 100 | > 100 | > 100 |  |  |  |  |  |  |  | 
C(#CC1(Nc2ccccc2)CCN(Cc2ccccc2)CC1)C1(Nc2ccccc2)CCN(Cc2ccccc2)CC1 | 52.9 | > 46.4 | 20.1 | > 56.2 | 13.1 | 16.1 | > 46.4 | 3.5 | 21.4 | > 100 | 42.8 |  |  |  |  |  |  |  | 
CCCCCCCCCCOCCOCCOCCOCCCCC(O)CCCCCCCC1=C[C@H](C)OC1=O (stereo partly specified) | 27.2 | 26.4 | 25 | 29.5 | 41.4 | 36.3 | 23.9 | 34.5 | 28.7 | 16.1 | 30.8 |  |  |  |  |  |  |  | 
CCC1CCC2c3c([nH]c4ccc(C)cc34)C3C(=O)N(N(C)C)C(=O)C3C2C1 (stereo unspecified) | > 100 | > 100 | > 100 | > 100 | > 100 | > 57 | > 100 | > 100 | > 100 | > 100 | > 100 |  |  |  |  |  |  |  | 
O=C(Nc1cccc(C(=O)NCCCO)c1)/C(=C/c1ccccc1)NC(=O)c1ccccc1 | > 100 | > 100 | > 100 | > 100 | > 100 | > 100 | > 100 | > 100 | > 100 | > 100 | > 100 |  |  |  |  |  |  |  | 
Cc1cccc(C)c1N=Nc1ccc(O)c(CN(C)C)c1 | > 100 | > 100 | 88.8 | > 100 | > 100 | > 100 | > 100 | 44.8 | 64.6 | > 100 | > 100 |  |  |  |  |  |  |  | 
Cn1cc(-c2nnc(-c3ccc(Cl)cc3)[nH]c2=O)c2ccccc21 | > 54.7 | > 64.9 | > 37.3 | > 64.6 | > 69.8 | > 100 | > 100 | > 100 | > 51.9 | > 100 | > 84.9 |  |  |  |  |  |  |  | 
Cc1cc2c(cc1Cl)SC(NNC1=NCCN1)=NS2(=O)=O | > 10 | > 10 | > 10 | > 10 | > 10 | > 10 | > 10 | > 10 | > 10 | > 10 | > 10 |  |  |  |  |  |  |  | 
COc1cc(C2OC[C@@H]3C(=O)OC[C@H]23)cc(O)c1OC (stereo partly specified) | > 100 | > 100 | > 100 | > 100 | > 100 | > 100 | > 100 | > 100 | > 100 | > 100 | > 100 |  |  |  |  |  |  |  | 
CCOC(=O)N/N=C(\CC)OCC | > 100 | > 100 | > 100 |  | > 100 | > 100 | > 100 | > 100 | > 100 | > 100 | > 100 |  |  |  |  |  |  |  | 
CN1CCN(Cc2nc3c(s2)CCc2sccc2-3)CC1 | > 100 | > 100 | > 100 | > 100 | > 100 | > 100 | > 100 | > 100 | 57 | > 100 | > 100 |  |  |  |  |  |  |  | 
C=C1c2nc3ccccc3n2C=C(c2ccc(Cl)cc2)N1c1ccc(OCCN2CCCCC2)cc1 | > 100 | > 100 | > 100 | > 45 | > 100 | > 100 | > 45 | > 100 | > 100 | > 100 | > 100 | 4.53 | > 100 | > 100 | 1.09 | > 100 | > 100 | > 100 | > 100
